{
  "source": "paper PMC3930694",
  "about": "“Small Molecule Inhibitors Target the Tissue Transglutaminase and Fibronectin Interaction” (PLoS ONE, 2014)",
  "molecular_target": "T1, Tissue transglutaminase (TG2) (Homo sapiens, UniProt P21980)",
  "T1 construct": "gene TGM2; Full length TG2, His6-tagged, expressed in E. coli",
  "T1 sequence (P21980 whole entry)": "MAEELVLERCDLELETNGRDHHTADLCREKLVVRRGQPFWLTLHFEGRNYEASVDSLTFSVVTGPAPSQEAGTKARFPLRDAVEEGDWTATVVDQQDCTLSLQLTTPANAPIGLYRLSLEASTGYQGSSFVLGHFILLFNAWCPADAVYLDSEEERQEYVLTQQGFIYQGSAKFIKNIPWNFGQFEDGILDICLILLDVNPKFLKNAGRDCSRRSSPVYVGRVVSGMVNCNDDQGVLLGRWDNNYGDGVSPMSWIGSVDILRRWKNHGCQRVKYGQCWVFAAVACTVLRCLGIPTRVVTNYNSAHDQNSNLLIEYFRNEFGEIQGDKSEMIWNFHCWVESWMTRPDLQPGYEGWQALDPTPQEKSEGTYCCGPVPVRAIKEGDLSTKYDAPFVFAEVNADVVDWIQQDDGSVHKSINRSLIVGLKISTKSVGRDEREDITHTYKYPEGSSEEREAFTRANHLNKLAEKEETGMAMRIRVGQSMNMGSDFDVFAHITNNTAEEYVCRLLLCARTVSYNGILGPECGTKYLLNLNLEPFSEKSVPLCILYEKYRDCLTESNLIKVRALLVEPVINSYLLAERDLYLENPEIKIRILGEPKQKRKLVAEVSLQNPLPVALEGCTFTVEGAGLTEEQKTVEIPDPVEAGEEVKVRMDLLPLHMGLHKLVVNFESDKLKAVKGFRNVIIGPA",
  "T1 sequence (P02751 32-2477 partner)": "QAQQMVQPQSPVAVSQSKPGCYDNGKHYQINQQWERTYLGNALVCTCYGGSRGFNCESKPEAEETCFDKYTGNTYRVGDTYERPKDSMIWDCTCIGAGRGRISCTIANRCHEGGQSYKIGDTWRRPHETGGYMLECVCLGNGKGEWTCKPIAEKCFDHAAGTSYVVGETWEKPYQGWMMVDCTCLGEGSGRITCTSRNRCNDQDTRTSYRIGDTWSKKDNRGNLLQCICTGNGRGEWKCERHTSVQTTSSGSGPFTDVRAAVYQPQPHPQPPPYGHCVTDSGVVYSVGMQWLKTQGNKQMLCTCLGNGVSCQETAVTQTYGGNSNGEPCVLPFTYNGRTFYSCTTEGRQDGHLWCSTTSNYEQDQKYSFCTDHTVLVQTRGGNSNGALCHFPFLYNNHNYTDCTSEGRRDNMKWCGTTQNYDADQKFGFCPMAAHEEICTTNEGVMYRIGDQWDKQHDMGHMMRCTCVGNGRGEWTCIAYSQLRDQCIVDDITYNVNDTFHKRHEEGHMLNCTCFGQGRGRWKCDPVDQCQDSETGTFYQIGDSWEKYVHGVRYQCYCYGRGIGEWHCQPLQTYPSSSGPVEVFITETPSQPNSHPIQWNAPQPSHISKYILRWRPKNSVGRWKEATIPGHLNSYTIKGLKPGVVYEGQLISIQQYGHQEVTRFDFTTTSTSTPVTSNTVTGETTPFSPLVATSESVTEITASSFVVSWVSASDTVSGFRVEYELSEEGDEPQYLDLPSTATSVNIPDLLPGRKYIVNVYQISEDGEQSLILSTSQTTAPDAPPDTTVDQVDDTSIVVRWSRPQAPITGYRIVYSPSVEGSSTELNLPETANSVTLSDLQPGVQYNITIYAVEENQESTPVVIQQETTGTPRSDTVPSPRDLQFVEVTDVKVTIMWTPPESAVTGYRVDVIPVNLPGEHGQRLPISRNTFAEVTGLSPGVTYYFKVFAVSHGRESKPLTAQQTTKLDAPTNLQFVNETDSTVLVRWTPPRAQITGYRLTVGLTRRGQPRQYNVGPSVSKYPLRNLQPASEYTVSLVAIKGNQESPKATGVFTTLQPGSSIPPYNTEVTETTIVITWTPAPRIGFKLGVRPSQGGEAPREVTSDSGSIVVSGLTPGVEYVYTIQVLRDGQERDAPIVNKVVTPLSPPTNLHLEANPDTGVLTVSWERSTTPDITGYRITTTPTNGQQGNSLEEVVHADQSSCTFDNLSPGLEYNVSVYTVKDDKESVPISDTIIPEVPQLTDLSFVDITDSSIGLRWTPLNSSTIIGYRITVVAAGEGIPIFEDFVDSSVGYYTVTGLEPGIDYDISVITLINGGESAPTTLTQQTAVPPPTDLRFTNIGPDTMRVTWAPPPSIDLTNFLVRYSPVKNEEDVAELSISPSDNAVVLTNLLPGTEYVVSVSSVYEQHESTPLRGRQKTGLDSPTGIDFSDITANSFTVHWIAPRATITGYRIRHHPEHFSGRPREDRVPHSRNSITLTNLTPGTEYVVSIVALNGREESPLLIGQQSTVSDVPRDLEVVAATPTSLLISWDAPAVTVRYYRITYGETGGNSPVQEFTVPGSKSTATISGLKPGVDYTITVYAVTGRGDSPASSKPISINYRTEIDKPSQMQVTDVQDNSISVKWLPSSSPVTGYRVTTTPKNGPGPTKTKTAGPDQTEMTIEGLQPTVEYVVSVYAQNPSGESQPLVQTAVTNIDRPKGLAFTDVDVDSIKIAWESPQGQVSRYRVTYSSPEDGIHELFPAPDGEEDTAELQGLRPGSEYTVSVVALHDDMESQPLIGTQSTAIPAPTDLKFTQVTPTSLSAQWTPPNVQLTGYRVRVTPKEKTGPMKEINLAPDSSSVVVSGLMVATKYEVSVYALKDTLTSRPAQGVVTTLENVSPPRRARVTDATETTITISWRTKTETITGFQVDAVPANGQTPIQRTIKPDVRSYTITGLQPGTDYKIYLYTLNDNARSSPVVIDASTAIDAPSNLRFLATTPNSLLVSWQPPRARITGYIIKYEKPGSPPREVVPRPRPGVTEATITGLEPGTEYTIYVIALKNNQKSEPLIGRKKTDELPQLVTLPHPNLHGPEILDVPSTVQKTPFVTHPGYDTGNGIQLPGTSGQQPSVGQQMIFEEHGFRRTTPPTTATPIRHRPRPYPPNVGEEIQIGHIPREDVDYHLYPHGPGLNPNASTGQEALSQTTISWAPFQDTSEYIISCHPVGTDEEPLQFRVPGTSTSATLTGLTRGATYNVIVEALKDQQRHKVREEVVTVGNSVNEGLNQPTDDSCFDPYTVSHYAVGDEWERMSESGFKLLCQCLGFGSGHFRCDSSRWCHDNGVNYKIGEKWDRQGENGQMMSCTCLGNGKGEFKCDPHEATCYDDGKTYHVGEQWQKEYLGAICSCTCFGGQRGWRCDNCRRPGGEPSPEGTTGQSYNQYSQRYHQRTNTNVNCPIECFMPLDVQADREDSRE",
  "test": "competition ELISA with purified His6-TG2 and biotinylated FN42 (FN42 saturation curves, Lineweaver-Burk); AlphaLISA",
  "type": "binding",
  "data": [
    {"smiles": "COc1ccc(Cl)cc1C(=O)Nc1ccc(Nc2nc(C)cc(N(C)C)n2)cc1", "note": "[TG53]", "values": [
      {"measurement": "Ki", "result": 4.15, "unit": "µM"}
    ]}
  ]
}
